In US11161846B2, “Substituted pyrazolo[4,3-b]pyridines and their use as GluN2B receptor modulators” (JANSSEN PHARMACEUTICA NV, priority 2019, dated 2021):
Structures can show the parent of a compound that is named as a salt.

The molecules below were run against T1, human GluN1/GluN2B NMDA receptors (Homo sapiens, UniProt Q05586+Q13224) (assay: Calcium flux (FLIPR) assay on cloned human NR1/GluN2B ion channels expressed in mammalian cells, standard assay). Conditions: glutamate ~EC40 and 10 μM glycine, stable cell line with Tet-On induced expression.
T1 construct: expressed in transfected cells
Format: cell-based
Protocol: Effects of Test Articles on Cloned Human NR1/GluN2B Ion Channels Expressed in Mammalian Cells
NMDA receptors are ion channels that are highly permeable to Ca^2+ ions, rendering it possible to monitor NMDA receptor function using cell-based calcium flux assay. In this assay, co-agonists glutamate and glycine are added to cells heterologously expressing human GluN1/GluN2B NMDA receptors to initiate cellular Ca^2+ influx. The time course of the changes in intracellular calcium is measured using a fluorescent dye and a FLIPR (Fluorometric Imaging Plate Reader) device.
Twenty four hours before measurements, the expression of the NMDA receptors in the stable cell line is induced with Tet-On inducible system in the presence of a non-selective NMDA receptor blocker. On the day of the experiment, cell culture media is carefully washed and the cells are loaded with Calcium 5 Dye Kit (Molecular Devices) in dye loading buffer containing 137 mM NaCl, 4 mM KCl, 2 mM CaCl2, 0.5 mM MgCl2 (standard assay) or 1.5 mM MgCl2 (HTS assay), 10 mM HEPES and 5 mM D-glucose; pH 7.4. After 1 h incubation at the room temperature, the dye is washed away with the assay buffer (137 mM NaCl (standard assay) or 150 mM (HTS assay), 4 mM KCl (standard assay) or 3 mM (HTS assay), 2 mM CaC2, 0.01 mM EDTA, 10 mM HEPES and 5 mM D-glucose; pH 7.4) In the FLIPR TETRA reader, various concentrations of the test compounds are added to the cells for 5 min while fluorescence is monitored to detect potential agonist activity. Next, co-agonists, glutamate and glycine are added for another 5 minutes. The concentration of glutamate corresponding to ˜EC40 (standard assay) or EC40 (HTS assay) is used to maximize the assay's signal window and ability to detect NMDA receptor antagonists and negative allosteric modulators. A saturating concentration (10 μM) of glycine is also present in the assay. A non-selective NMDA receptor antagonist, (+)MK-801 is used as a positive control for antagonist activity. The fluorescent signal in the presence of test compounds is quantified and normalized to the signal defined by the appropriate control wells.

T1 sequence (Q13224 27-1484, other chains not shown): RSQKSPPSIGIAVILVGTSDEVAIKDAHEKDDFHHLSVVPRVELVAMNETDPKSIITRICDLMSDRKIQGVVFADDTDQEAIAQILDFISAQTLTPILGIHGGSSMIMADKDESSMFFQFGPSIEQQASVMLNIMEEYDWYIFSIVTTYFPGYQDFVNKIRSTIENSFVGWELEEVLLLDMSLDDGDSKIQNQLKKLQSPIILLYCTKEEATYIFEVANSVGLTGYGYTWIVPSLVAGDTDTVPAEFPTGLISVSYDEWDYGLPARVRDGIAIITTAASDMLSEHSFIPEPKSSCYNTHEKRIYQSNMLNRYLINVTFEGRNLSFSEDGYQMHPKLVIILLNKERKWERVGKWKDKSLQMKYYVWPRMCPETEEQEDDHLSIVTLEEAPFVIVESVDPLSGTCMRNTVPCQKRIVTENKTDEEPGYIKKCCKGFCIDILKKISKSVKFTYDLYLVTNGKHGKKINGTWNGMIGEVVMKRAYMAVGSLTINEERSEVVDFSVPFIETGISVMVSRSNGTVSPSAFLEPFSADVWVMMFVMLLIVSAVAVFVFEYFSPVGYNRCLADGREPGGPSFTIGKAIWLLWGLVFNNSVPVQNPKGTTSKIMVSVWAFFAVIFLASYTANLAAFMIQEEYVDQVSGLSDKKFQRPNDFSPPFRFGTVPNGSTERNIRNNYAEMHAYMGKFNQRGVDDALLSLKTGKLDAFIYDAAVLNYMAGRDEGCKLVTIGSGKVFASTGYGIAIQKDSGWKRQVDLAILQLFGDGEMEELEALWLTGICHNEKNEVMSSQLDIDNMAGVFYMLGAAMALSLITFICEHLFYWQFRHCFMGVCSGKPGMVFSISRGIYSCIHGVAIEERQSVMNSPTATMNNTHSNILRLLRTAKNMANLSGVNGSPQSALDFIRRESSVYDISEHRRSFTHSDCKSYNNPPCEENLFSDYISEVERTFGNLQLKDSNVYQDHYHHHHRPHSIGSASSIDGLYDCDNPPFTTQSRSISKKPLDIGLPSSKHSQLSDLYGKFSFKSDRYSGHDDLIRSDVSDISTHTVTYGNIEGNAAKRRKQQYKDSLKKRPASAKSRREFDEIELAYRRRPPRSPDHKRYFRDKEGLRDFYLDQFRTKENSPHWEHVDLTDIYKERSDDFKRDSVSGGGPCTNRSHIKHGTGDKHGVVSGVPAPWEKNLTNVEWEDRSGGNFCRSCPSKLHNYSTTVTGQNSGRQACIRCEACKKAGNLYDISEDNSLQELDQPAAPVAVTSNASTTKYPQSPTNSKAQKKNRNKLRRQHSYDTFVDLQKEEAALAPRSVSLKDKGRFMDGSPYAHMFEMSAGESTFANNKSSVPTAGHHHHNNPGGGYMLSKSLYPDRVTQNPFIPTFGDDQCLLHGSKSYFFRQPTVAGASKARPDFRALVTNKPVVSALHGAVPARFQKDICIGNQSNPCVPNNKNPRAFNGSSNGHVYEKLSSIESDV

| SMILES | IC50 [nM] |
| --- | --- |
| CC(=O)Cn1ncc2ncc(-c3ccc(F)c(C(F)F)c3)cc21 [Example 23, 1-[6-[3-(Difluoromethyl)-4-fluoro-phenyl]pyrazolo[4,3-b]pyridin-1-yl]propan-2-one] | 14 |
| O=C1OC(Cn2ncc3ncc(-c4ccc(F)c(C(F)F)c4)cc32)CN1C1CC1 (racemic) [Example 134, (RS)-3-Cyclopropyl-5-[[6-[3-(difluoromethyl)-4-fluoro-phenyl]pyrazolo[4,3-b]pyridin-1-yl]methyl]oxazolidin-2-one] | 1630 |
| CN1C(=O)OCC1Cn1ncc2ncc(-c3ccc(F)c(C(F)F)c3)cc21 (racemic) [Example 124, (RS)-4-[[6-[3-(Difluoromethyl)-4-fluoro-phenyl]pyrazolo[4,3-b]pyridin-1-yl]methyl]-3-methyl-oxazolidin-2-one] | 1890 |
| CN1CCC(Cn2ncc3ncc(-c4ccc(F)c(OC(F)F)c4)cc32)C1=O (racemic) [Example 119, (RS)-3-((6-(3-(Difluoromethoxy)-4-fluorophenyl)-1H-pyrazolo[4,3-b]pyridin-1-yl)methyl)-1-methylpyrrolidin-2-one] | 352 |
| CCC(O)Cn1ncc2ncc(-c3ccc(F)c(OC(F)F)c3)cc21 (racemic) [Example 92, (RS)-1-[6-[3-(Difluoromethoxy)-4-fluoro-phenyl]pyrazolo[4,3-b]pyridin-1-yl]butan-2-ol] | 282 |
| CCC(=O)Cn1nc(F)c2ncc(-c3ccc(F)c(F)c3)cc21 [Example 35, 1-[6-(3,4-Difluorophenyl)-3-fluoro-pyrazolo[4,3-b]pyridin-1-yl]butan-2-one] | 5 |
| CC(C)C(=O)Cn1ncc2ncc(-c3ccc(F)cc3)cc21 [Example 45, 1-[6-(4-Fluorophenyl)pyrazolo[4,3-b]pyridin-1-yl]-3-methyl-butan-2-one] | 36 |
| CN1CC[C@@H](Cn2ncc3ncc(-c4ccc(F)c(C(F)F)c4)cc32)C1=O [Example 117, (S)-3-[[6-[3-(Difluoromethyl)-4-fluoro-phenyl]pyrazolo[4,3-b]pyridin-1-yl]methyl]-1-methyl-pyrrolidin-2-one] | 1210 |
| OC(Cn1ncc2ncc(-c3ccc(F)c(C(F)F)c3)cc21)C1CC1 (racemic) [Example 104, (RS)-1-Cyclopropyl-2-(6-(3-(difluoromethyl)-4-fluorophenyl)-1H-pyrazolo[4,3-b]pyridin-1-yl)ethan-1-ol] | 165 |
| O=C(Cn1ncc2ncc(-c3ccc(F)c(C(F)F)c3)cc21)c1cccnc1 [Example 16, 2-(6-(3-(Difluoromethyl)-4-fluorophenyl)-1H-pyrazolo[4,3-b]pyridin-1-yl)-1-(pyridin-3-yl)ethan-1-one] | 90 |
| Cc1cc(-c2cnc3cnn(C[C@H](O)C4CC4)c3c2)ccc1F [Example 102, (R)-1-Cyclopropyl-2-[6-(4-fluoro-3-methyl-phenyl)pyrazolo[4,3-b]pyridin-1-yl]ethanol] | 109 |
| O=C(Cn1ncc2ncc(-c3ccc(F)c(C(F)F)c3)cc21)c1ccccn1 [Example 14, 2-[6-[3-(Difluoromethyl)-4-fluoro-phenyl]pyrazolo[4,3-b]pyridin-1-yl]-1-(2-pyridyl)ethanone] | 112 |
| Fc1ccc(-c2cnc3cnn(CC4CCCO4)c3c2)cc1OC(F)F (racemic) [Example 112, (RS)-6-[3-(Difluoromethoxy)-4-fluoro-phenyl]-1-(tetrahydrofuran-2-ylmethyl)pyrazolo[4,3-b]pyridine] | 113 |
| Cc1cc(-c2cnc3cnn(CC(=O)C4CCC4)c3c2)ccc1F [Example 70, 1-Cyclobutyl-2-[6-(4-fluoro-3-methyl-phenyl)pyrazolo[4,3-b]pyridin-1-yl]ethanone] | 63 |
| CC(C)C(=O)Cn1ncc2ncc(-c3cccc(F)c3F)cc21 [Example 48, 1-[6-(2,3-Difluorophenyl)pyrazolo[4,3-b]pyridin-1-yl]-3-methyl-butan-2-one] | 172 |
| O=C(Cn1ncc2ncc(-c3ccc(F)c(C(F)F)c3)cc21)c1ccc(F)cn1 [Example 15, 2-(6-(3-(Difluoromethyl)-4-fluorophenyl)-1H-pyrazolo[4,3-b]pyridin-1-yl)-1-(5-fluoropyridin-2-yl)ethan-1-one] | 160 |
| CCC(=O)Cn1ncc2ncc(-c3ccc(Cl)s3)cc21 [Example 27, 1-[6-(5-Chloro-2-thienyl)pyrazolo[4,3-b]pyridin-1-yl]butan-2-one] | 13 |
| CCC(=O)Cn1ncc2ncc(-c3ccc(Cl)c(OC(F)F)c3)cc21 [Example 41, 1-[6-[4-Chloro-3-(difluoromethoxy)phenyl]pyrazolo[4,3-b]pyridin-1-yl]butan-2-one] | 21 |

| SMILES | IC50 [nM] |
| --- | --- |
| CC[S+]([O-])Cn1ncc2ncc(-c3ccc(F)c(C(F)F)c3)cc21 (racemic) [Example 83, (RS)-6-(3-(Difluoromethyl)-4-fluorophenyl)-1-((ethylsulfinyl)methyl)-1H-pyrazolo[4,3-b]pyridine] | 34 |
| O=C1NCC(Cn2ncc3ncc(-c4ccc(F)c(C(F)F)c4)cc32)O1 (racemic) [Example 20, (RS)-5-[[6-[3-(Difluoromethyl)-4-fluoro-phenyl]pyrazolo[4,3-b]pyridin-1-yl]methyl]oxazolidin-2-one] | 197 |
| CCC(=O)Cn1ncc2ncc(-c3cccc(C(F)F)c3)cc21 [Example 30, 1-[6-[3-(Difluoromethyl)phenyl]pyrazolo[4,3-b]pyridin-1-yl]butan-2-one] | 27 |
| CCC(=O)Cn1ncc2ncc(-c3ccc(F)cc3)cc21 [Example 28, 1-[6-(4-Fluorophenyl)pyrazolo[4,3-b]pyridin-1-yl]butan-2-one] | 32 |
| CCC(=O)Cn1ncc2ncc(-c3cccc(F)c3F)cc21 [Example 33, 1-[6-(2,3-Difluorophenyl)pyrazolo[4,3-b]pyridin-1-yl]butan-2-one] | 46 |
| CCC(O)Cn1ncc2ncc(-c3ccc(F)c(C(F)F)c3)cc21 (racemic) [Example 5, (RS)-1-[6-[3-(Difluoromethyl)-4-fluoro-phenyl]pyrazolo[4,3-b]pyridin-1-yl]butan-2-ol] | 48 |
| CC[S+]([O-])Cn1ncc2ncc(-c3ccc(F)c(C(F)F)c3)cc21 (single isomer, unassigned) [Example 84, (S*)-6-(3-(Difluoromethyl)-4-fluorophenyl)-1-((ethylsulfinyl)methyl)-1H-pyrazolo[4,3-b]pyridine] | 29 |
| Fc1ccc(-c2cnc3cnn(CC4CCCO4)c3c2)cc1C(F)F (racemic) [Example 18, (RS)-6-[3-(Difluoromethyl)-4-fluoro-phenyl]-1-(tetrahydrofuran-2-ylmethyl)pyrazolo[4,3-b]pyridine] | 35 |
| Cc1cccc(-c2cnc3cnn(CC(=O)C4CC4)c3c2)c1 [Example 60, 1-Cyclopropyl-2-[6-(m-tolyl)pyrazolo[4,3-b]pyridin-1-yl]ethanone] | 8 |
| CCC(F)(F)Cn1ncc2ncc(-c3ccc(F)c(OC(F)F)c3)cc21 [Example 99, 1-(2,2-Difluorobutyl)-6-[3-(difluoromethoxy)-4-fluoro-phenyl]pyrazolo[4,3-b]pyridine] | 213 |
| OC(Cn1ncc2ncc(-c3cccc(C(F)(F)F)c3)cc21)C1CC1 (racemic) [Example 100, (RS)-1-Cyclopropyl-2-[6-[3-(trifluoromethyl)phenyl]pyrazolo[4,3-b]pyridin-1-yl]ethanol] | 290 |
| CCC(=O)Cn1ncc2ncc(-c3ccc(F)c(C)c3)cc21 [Example 32, 1-[6-(4-Fluoro-3-methyl-phenyl)pyrazolo[4,3-b]pyridin-1-yl]butan-2-one Trifluoroacetate Salt] | 12 |
| CC(F)(F)c1cc(-c2cnc3cnn(CC4CNC(=O)O4)c3c2)ccc1F (racemic) [Example 127, (RS)-5-[[6-[3-(1,1-Difluoroethyl)-4-fluoro-phenyl]pyrazolo[4,3-b]pyridin-1-yl]methyl]oxazolidin-2-one] | 973 |
| CC(=O)Cn1ncc2ncc(-c3ccc(Cl)c(OC(F)F)c3)cc21 [Example 26, 1-[6-[4-Chloro-3-(difluoromethoxy)phenyl]pyrazolo[4,3-b]pyridin-1-yl]propan-2-one] | 36 |
| CC(C)C(=O)Cn1ncc2ncc(-c3ccc(F)c(F)c3)cc21 [Example 49, 1-[6-(3,4-Difluorophenyl)pyrazolo[4,3-b]pyridin-1-yl]-3-methyl-butan-2-one] | 25 |
| CCC(=O)Cn1ncc2ncc(-c3ccc(F)c(C(F)(F)F)c3)cc21 [Example 39, 1-[6-[4-Fluoro-3-(trifluoromethyl)phenyl]pyrazolo[4,3-b]pyridin-1-yl]butan-2-one] | 75 |
| CC(C)C(=O)Cn1ncc2ncc(-c3cc(F)c(F)c(F)c3)cc21 [Example 53, 3-Methyl-1-[6-(3,4,5-trifluorophenyl)pyrazolo[4,3-b]pyridin-1-yl]butan-2-one] | 41 |
